The record followed here is PMC8360864, “Benzylmalonyl-CoA dehydrogenase, an enzyme involved in bacterial auxin degradation” (Archives of Microbiology, 2021).

As usually defined, the Km is the substrate concentration at which the rate is half of its maximum.

The target of series [1] is T1, Benzylmalonyl-CoA dehydrogenase (IaaF) (Aromatoleum aromaticum, UniProt Q5P5Z9).
T1 construct: fusion protein of IaaF with a N-terminal Strep-tag
T1 sequence (Q5P5Z9 1-377): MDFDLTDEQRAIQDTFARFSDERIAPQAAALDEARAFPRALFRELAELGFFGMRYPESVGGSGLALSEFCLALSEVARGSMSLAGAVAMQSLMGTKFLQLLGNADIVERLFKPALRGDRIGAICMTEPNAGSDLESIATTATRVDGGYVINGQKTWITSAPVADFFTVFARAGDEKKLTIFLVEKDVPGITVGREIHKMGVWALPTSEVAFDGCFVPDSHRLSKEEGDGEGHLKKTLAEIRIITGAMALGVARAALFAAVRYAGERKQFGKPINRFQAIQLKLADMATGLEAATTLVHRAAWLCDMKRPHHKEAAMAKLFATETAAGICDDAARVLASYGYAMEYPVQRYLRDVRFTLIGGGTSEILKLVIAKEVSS
The series is described as follows: product formation by HPLC and UV-Vis with purified enzyme. In kind it is biochemical.

Substrate in the series “purified protein”: CC(C)(COP(=O)(O)OP(=O)(O)OC[C@H]1O[C@@H](n2cnc3c(N)ncnc32)[C@H](O)[C@@H]1OP(=O)(O)O)[C@@H](O)C(=O)NCCC(=O)NCCSC(=O)C(Cc1ccccc1)C(=O)O
The series is described as follows: purified protein. In kind it is biochemical, Aromatoleum aromaticum. The settings on record: FAD active site (GGG motif replacing YEG) proposed.

`CC(C)(COP(=O)(O)OP(=O)(O)OC[C@H]1O[C@@H](n2cnc3c(N)ncnc32)[C@H](O)[C@@H]1OP(=O)(O)O)[C@@H](O)C(=O)NCCC(=O)NCCSC(=O)/C=C/c1ccccc1` [cinnamoyl-CoA]: the “product formation by HPLC and UV-Vis with purified enzyme” value in series [1] is listed as “formation of a new CoA-thioester over time which was identified as cinnamoyl-CoA by its UV–Vis spectrum”.

B1: Benzylmalonyl-CoA dehydrogenase (IaaF) (Aromatoleum aromaticum EbN1) (protein)
chain: T1 sequence (Q5P5Z9 1-377)
notes: fusion protein of IaaF with a N-terminal Strep-tag
Regarding B1, the Km in the series “purified protein” worked out at 1.6 ± 0.3 µM.
